Measured values as given in ChEMBL document CHEMBL1154194, “Glucose-containing flavones--their synthesis and antioxidant and neuroprotective activities” (Bioorg Med Chem Lett, 2009).

Assays:
[1] = tested on: Radical scavenging activity; assay: Antioxidant activity assessed as DPPH radical scavenging activity after 30 mins; assay type: functional
[2] = Antioxidant activity assessed as inhibition of xanthine/xanthine oxidase system-induced superoxide anion radical scavenging activity after 20 mins; assay type: functional
Liver = assay: Antioxidant activity in rat liver homogenate assessed as inhibition of iron-ascorbic acid mix-induced lipid peroxidation by TBARS assay; assay type: functional, tissue-based
[3] = (§1) Neuroprotective activity against H2O2-induced neuronal damage in Sprague-Dawley rat cerebral cortical cells after 20 to 24 hrs by MTT assay; assay type: functional
Rattus norvegicus = organism: Rattus norvegicus; assay: as §1; assay type: functional

IC50 [1] [µM]	IC50 [2] [µM]	IC50 (Liver) [µM]	SMILES	IC50 [3] [µM]	Activity (Rattus norvegicus)
18.5	3.53	47.8	O=c1cc(-c2ccc(O)c(O)c2)oc2cc(OCCOC[C@@H]3OC(O)[C@@H](O)[C@H](O)[C@H]3O)cc(O)c12 (stereo partly specified)	15.7	Dose-dependent effect
19.7	32.9	66.7	COc1c(-c2ccc(O)c(O)c2)oc2cc(OCC(=O)OC[C@@H]3OC(O)[C@@H](O)[C@H](O)[C@H]3O)cc(O)c2c1=O (stereo partly specified)	5.34	Dose-dependent effect
15.6	12.8	78	COc1c(-c2ccc(O)c(O)c2)oc2cc(OCCOC[C@@H]3OC(O)[C@@H](O)[C@H](O)[C@H]3O)cc(O)c2c1=O (stereo partly specified)	58.4	Dose-dependent effect

The next lines start with the compound.

SMILES	IC50 [1] [µM]	IC50 [2] [µM]	IC50 (Liver) [µM]	IC50 [3] [µM]	Activity (Rattus norvegicus)
O=C(COc1cc(O)c2c(=O)cc(-c3ccc(O)c(O)c3)oc2c1)OC[C@@H]1OC(O)[C@@H](O)[C@H](O)[C@H]1O (stereo partly specified)	16.7	6.22	47.9	12.7	Dose-dependent effect
COc1c(-c2ccc(O)c(O)c2)oc2cc(OC3O[C@@H](CO)[C@H](O)[C@@H](O)[C@@H]3O)cc(O)c2c1=O (stereo partly specified)	16.9	10.2	43.2	30.7	Dose-dependent effect
COc1c(-c2ccc(O)c(O)c2)oc2cc(O)cc(O)c2c1=O [3-O-METHYLQUERCETIN]	14.2	17.4	19	3.5	
O=c1cc(-c2ccc(O)c(O)c2)oc2cc(O)cc(O)c12 [LUTEOLIN]	16.2	8.66	24.7	3.75	
O=C1O[C@H]([C@@H](O)CO)C(O)=C1O [ASCORBIC ACID]	41	> 300	> 300		
O=c1cc(-c2ccc(O)c(O)c2)oc2cc(OC3O[C@@H](CO)[C@H](O)[C@@H](O)[C@@H]3O)cc(O)c12 (stereo partly specified)	17.3	3.28	40.4	7.33	Dose-dependent effect
